The values below come from patent US11919908B2, “Substituted pyrrolo[2,3-d]pyrimidine compounds as JAK2 V617F inhibitors” (Incyte Corporation, priority 2020, dated 2024).

Some results are limits rather than exact numbers.

Experiment [1] concerns the target T1, pseudo-kinase domain (JH2) of human V617F mutant JAK2 (Homo sapiens, UniProt O60674, F794H/V617F/W659A/W777A).
T1 construct: pseudo-kinase domain (JH2, amino-acids 536-812 with 3 surface mutations W659A, W777A, F794H); His (C); purchased BPS Bioscience 79498; host or cells: baculovirus expression system
Kind of experiment: JAK2 LanthaScreen JH2-V617F Binding Assay. The conditions noted are these: 50 nM Fluorescent JAK2-JH2 Tracer, 1 hour at 25° C. The method, then:
(§1) Example C. JAK2 LanthaScreen JH2-V617F Binding Assay JAK2 JH2-V617F binding assay utilizes pseudo-kinase domain (JH2, amino-acids 536-812 with 3 surface mutations […]) of human V617F mutant JAK2 expressed as C-terminal His-Avi-tagged, biotinylated protein in a baculovirus expression system (BPS Bioscience, Catalog #79498). The assay was conducted in black 384-well polystyrene plates in a final reaction volume of 20 μL. JAK2 JH2-V617F (0.26 nM) was incubated with compounds (100 nL serially diluted in DMSO) in the presence of 50 nM Fluorescent JAK2-JH2 Tracer (MedChem Express Catalog #HY-102055) and 0.25 nM Streptavidin-Tb cryptate (Cisbio Part #610SATLB) in assay buffer (50 mM Tris, pH=7.5, 10 mM MgCl2, 0.01% Brij-35, 0.1% BSA, 1 mM EGTA, 5% Glycerol and 5 mM DTT). Non-specific binding was accessed in the presence of 2 mM ATP. After incubation for 1 hour at 25° C., LanthaScreen signals were read on a PHERAstar FS plate reader (BMG LABTECH). Data was analyzed with IDBS XLfit and GraphPad Prism 5.0 software using a four parameter dose response curve to determine IC50 for each compound.

The target of experiment [2] is T2, pseudo-kinase domain (JH2) of human Wild Type JAK2 (Homo sapiens, UniProt O60674, F794H/W659A/W777A).
T2 construct: pseudo-kinase domain (JH2, amino-acids 536-812 with 3 surface mutations W659A, W777A, F794H); His (C); purchased BPS Bioscience 79463; host or cells: baculovirus expression system
T2 sequence (O60674 536-812 W659A/W777A/F794H): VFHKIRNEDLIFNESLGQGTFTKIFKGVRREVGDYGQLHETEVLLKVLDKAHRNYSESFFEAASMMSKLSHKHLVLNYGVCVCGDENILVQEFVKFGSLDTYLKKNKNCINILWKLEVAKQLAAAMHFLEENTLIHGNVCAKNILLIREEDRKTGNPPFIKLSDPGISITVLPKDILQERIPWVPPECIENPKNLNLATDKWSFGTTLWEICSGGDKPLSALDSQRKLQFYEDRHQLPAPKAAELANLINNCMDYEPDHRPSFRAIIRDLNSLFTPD
In words: JAK2 LanthaScreen JH2-WT Binding Assay. The settings on record: 50 nM Fluorescent JAK2-JH2 Tracer, 1 hour at 25° C. On the procedure: as §1, with “Example B.” for “Example C.”, “LanthaScreen JH2-WT” for “LanthaScreen JH2-V617F”, “JAK2 JH2-WT” for “JAK2 JH2-V617F”, “human Wild Type” for “human V617F mutant”, “Catalog #79463).” for “Catalog #79498).”, “JAK2 JH2-WT (0.145” for “JAK2 JH2-V617F (0.26”
For orientation: TR-FRET usually uses a lanthanide donor and a delayed reading to cut background.

Experiment [3] addresses T3, catalytic domain (JH1) of human JAK2 (Homo sapiens, UniProt O60674).
T3 construct: catalytic domain (JH1, amino acids 826-1132) of human JAK2; FLAG (N); purchased Carna Biosciences 08-445-20N; host or cells: baculovirus expression system
Kind of experiment: JAK2 LanthaScreen JH1 Binding Assay. The conditions noted are these: 50 nM Fluorescent JAK2-JH1 Tracer, 2 hours at 25° C. On the procedure: Example A. JAK2 LanthaScreen […] Binding Assay JAK2 JH1 binding assay utilizes catalytic domain (JH1, amino acids 826-1132) of human JAK2 expressed as N-terminal FLAG-tagged, biotinylated protein in a baculovirus expression system (Carna Biosciences, Product #08-445-20N). The assay was conducted in black 384-well polystyrene plates in a final reaction volume of 20 μL. JAK2 JH1 (1.5 nM) was incubated with compounds (100 nL serially diluted in DMSO) in the presence of 50 nM Fluorescent JAK2-JH1 Tracer and 0.5 nM Streptavidin-Tb cryptate (Cisbio Part #610SATLB) in assay buffer (50 mM Tris, pH=7.5, 10 mM MgCl2, 0.01% Brij-35, 0.1% BSA, 1 mM EGTA, 5% Glycerol and 5 mM DTT). Non-specific binding was accessed in the presence of 2 mM ATP. After incubation for 2 hours at 25° C., LanthaScreen signals were read on a PHERAstar FS plate reader (BMG LABTECH). Data was analyzed with IDBS XLfit and GraphPad Prism 5.0 software using a four parameter dose response curve to determine IC50 for each compound.

T1 sequence (O60674 536-812 V617F/W659A/W777A/F794H): as the sequence (O60674 536-812 W659A/W777A/F794H) above, with V82F counted along it
T3 sequence (O60674 826-1132): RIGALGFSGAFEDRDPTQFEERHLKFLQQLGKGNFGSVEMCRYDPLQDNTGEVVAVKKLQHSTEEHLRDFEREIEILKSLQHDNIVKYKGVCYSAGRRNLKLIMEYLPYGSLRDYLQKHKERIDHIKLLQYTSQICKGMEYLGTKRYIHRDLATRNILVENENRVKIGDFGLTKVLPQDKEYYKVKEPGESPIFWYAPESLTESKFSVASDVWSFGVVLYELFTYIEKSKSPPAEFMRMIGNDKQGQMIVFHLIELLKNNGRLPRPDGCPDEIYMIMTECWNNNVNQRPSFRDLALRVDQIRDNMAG

By IC50 is commonly meant the concentration needed to halve the response being measured. With `CN(C)S(=O)(=O)c1ccc(-c2[nH]c3nc(N)[nH]c(=O)c3c2-c2ccccc2F)cc1` [Example 64, 4-(2-Amino-5-(2-fluorophenyl)-4-oxo-4,7-dihydro-3H-pyrrolo[2,3-d]pyrimidin-6-yl)-N,N-dimethylbenzene-sulfonamide], the IC50 in experiment [1], in experiment [2] and in experiment [3] was 100 to 500 nM each time.

As to `CN(C)S(=O)(=O)c1ccc(-c2[nH]c3nc(N)[nH]c(=O)c3c2-c2cnn(C3CCOCC3)c2)cc1` [Example 37, 4-(2-Amino-4-oxo-5-(1-(tetrahydro-2H-pyran-4-yl)-1H-pyrazol-4-yl)-4,7-dihydro-3H-pyrrolo[2,3-d]pyrimidin-6-yl)-N,N-dimethylbenzene sulfonamide], the concentration for half-maximal inhibition (IC50) in experiment [1] is 1000 to 2500 nM; in experiment [2] it was greater than 2500 nM; in experiment [3], greater than 2500 nM.

Regarding `CN(C)S(=O)(=O)c1ccc(-c2[nH]c3nc(N)[nH]c(=O)c3c2-c2cccc3ccoc23)cc1` [Example 3, 4-(2-Amino-5-(benzofuran-7-yl)-4-oxo-4,7-dihydro-3H-pyrrolo[2,3-d]pyrimidin-6-yl)-N,N-dimethylbenzenesulfonamide], the IC50 was 100 to 500 nM in experiment [1], 100 to 500 nM in experiment [2] and greater than 2500 nM in experiment [3].

Turning to `CN(C)S(=O)(=O)c1ccc(-c2[nH]c3nc(N)[nH]c(=O)c3c2-c2cnn(Cc3ccccc3)c2)cc1` [Example 30, 4-(2-Amino-5-(1-benzyl-1H-pyrazol-4-yl)-4-oxo-4,7-dihydro-3H-pyrrolo[2,3-d]pyrimidin-6-yl)-N,N-dimethylbenzene sulfonamide], the IC50 in experiment [1], in experiment [2] and in experiment [3] was greater than 2500 nM throughout.

Consider `CN1CCOc2cc(-c3c(-c4ccc(S(=O)(=O)N(C)C)cc4)[nH]c4nc(N)[nH]c(=O)c34)ccc21` [Example 22, 4-(2-Amino-5-(4-methyl-3,4-dihydro-2H-benzo[b] [1,4]oxazin-7-yl)-4-oxo-4,7-dihydro-3H-pyrrolo [2,3-d]pyrimidin-6-yl)-N,N-dimethylbenzene sulfonamide], for which the IC50 in experiment [1] was 500 to 1000 nM; in experiment [2], 500 to 1000 nM; in experiment [3], 1000 to 2500 nM.

Turning to `COc1cc(C(N)=O)ccc1-c1c(-c2ccc(S(=O)(=O)N(C)C)cc2)[nH]c2nc(N)[nH]c(=O)c12` [Example 23, 4-(2-Amino-6-(4-(N,N-dimethylsulfamoyl)phenyl)-4-oxo-4,7-dihydro-3H-pyrrolo[2,3-d]pyrimidin-5-yl)-3-methoxy-benzamide], the half-inhibitory concentration (IC50) in experiment [1] was 500 to 1000 nM; in experiment [2], 500 to 1000 nM; in experiment [3], greater than 2500 nM.

In the case of `CN(C)S(=O)(=O)c1ccc(-c2[nH]c3nc(N)[nH]c(=O)c3c2-c2cccc(C(N)=O)c2)cc1` [Example 14, 3-(2-Amino-6-(4-(N,N-dimethylsulfamoyl)phenyl)-4-oxo-4,7-dihydro-3H-pyrrolo [2,3-d]pyrimidin-5-yl)benzamide], the IC50 in experiment [1], in experiment [2] and in experiment [3] was 1000 to 2500 nM throughout.

`Cc1cccc(-c2c(-c3ccc(C(=O)N(C)C)cc3)[nH]c3nc(N)[nH]c(=O)c23)c1` [Example 60, 4-(2-Amino-4-oxo-5-(3-tolyl)-4,7-dihydro-3H-pyrrolo[2,3-d]pyrimidin-6-yl)-N,N-dimethylbenzamide]: the values for the IC50 in experiment [1], in experiment [2] and in experiment [3] were 500 to 1000 nM, 500 to 1000 nM and greater than 2500 nM, respectively.

In the case of `COc1ccccc1-c1c(-c2ccc(CN3CCC(S(C)(=O)=O)CC3)cc2)[nH]c2nc(N)[nH]c(=O)c12` [Example 53], the half-maximal inhibitory concentration (IC50) in experiment [1] was 100 to 500 nM; in experiment [2], 100 to 500 nM; in experiment [3], greater than 2500 nM.

Regarding `CN(C)S(=O)(=O)c1ccc(-c2[nH]c3nc(N)[nH]c(=O)c3c2-c2ccc3c(c2)CCNC3=O)cc1` [Example 21, 4-(2-Amino-4-oxo-5-(1-oxo-1,2,3,4-tetrahydro-isoquinolin-6-yl)-4,7-dihydro-3H-pyrrolo[2,3-d]pyrimidin-6-yl)-N,N-dimethylbenzene sulfonamide], the results for the concentration for half-maximal inhibition (IC50) in experiment [1], in experiment [2] and in experiment [3] were 100 to 500 nM, 100 to 500 nM and 1000 to 2500 nM, respectively.

As for `CN(C)S(=O)(=O)c1ccc(-c2[nH]c3nc(N)[nH]c(=O)c3c2-c2cccc3c2OCCC3)cc1` [Example 10, 4-(2-Amino-5-(chroman-8-yl)-4-oxo-4,7-dihydro-3H-pyrrolo[2,3-d]pyrimidin-6-yl)-N,N-dimethylbenzene sulfonamide], the 50% inhibitory concentration (IC50) is 500 to 1000 nM in experiment [1], 500 to 1000 nM in experiment [2] and greater than 2500 nM in experiment [3].

Consider `CN(C)S(=O)(=O)c1ccc(-c2[nH]c3nc(N)[nH]c(=O)c3c2-c2cccc3c2OCCO3)cc1` [Example 7, 4-(2-Amino-5-(2,3-dihydrobenzo[b][1,4]dioxin-5-yl)-4-oxo-4,7-dihydro-3H-pyrrolo [2,3-d]pyrimidin-6-yl)-N,N-dimethylbenzene sulfonamide], for which the IC50 is 500 to 1000 nM in experiment [1], 500 to 1000 nM in experiment [2] and greater than 2500 nM in experiment [3].

Regarding `CN(C)S(=O)(=O)c1ccc(-c2[nH]c3nc(N)[nH]c(=O)c3c2-c2cccc(C(=O)O)c2)cc1` [Example 34, 3-(2-amino-6-(4-(N,N-dimethylsulfamoyl)phenyl)-4-oxo-4,7-dihydro-3H-pyrrolo[2,3-d]pyrimidin-5-yl)benzoic acid], the IC50 in experiment [1] was 100 to 500 nM; in experiment [2], 100 to 500 nM; in experiment [3], greater than 2500 nM.

Regarding `CN(C)S(=O)(=O)c1ccc(-c2[nH]c3nc(N)[nH]c(=O)c3c2-c2ccccc2Cl)cc1` [Example 5, 4-(2-Amino-5-(2-chlorophenyl)-4-oxo-4,7-dihydro-3H-pyrrolo[2,3-d]pyrimidin-6-yl)-N,N-dimethylbenzene sulfonamide], the half-maximal inhibitory concentration (IC50) in experiment [1] is 1000 to 2500 nM; in experiment [2] it was 1000 to 2500 nM; in experiment [3], greater than 2500 nM.

With `CCc1c(-c2ccccc2)[nH]c2nc(N)[nH]c(=O)c12` [Example 55, 2-Amino-5-ethyl-6-phenyl-3,7-dihydro-4H-pyrrolo[2,3-d]pyrimidin-4-one], the IC50 in experiment [1], in experiment [2] and in experiment [3] was greater than 2500 nM each time.

For `CN(C)S(=O)(=O)c1ccc(-c2[nH]c3nc(N)[nH]c(=O)c3c2-c2cccc3c2OC(F)(F)O3)cc1` [Example 12, 4-(2-Amino-5-(2,2-difluorobenzo[d] [1,3]dioxol-4-yl)-4-oxo-4,7-dihydro-3H-pyrrolo[2,3-d]pyrimidin-6-yl)-N,N-dimethylbenzene sulfonamide], the IC50 in experiment [1] was greater than 2500 nM; in experiment [2], greater than 2500 nM; in experiment [3], 1000 to 2500 nM.

With `COc1ccc(-c2c(-c3ccc(S(=O)(=O)N(C)C)cc3)[nH]c3nc(N)[nH]c(=O)c23)c(OC)c1` [Example 42, 4-(2-Amino-5-(2,4-dimethoxyphenyl)-4-oxo-4,7-dihydro-3H-pyrrolo[2,3-d]pyrimidin-6-yl)-N,N-dimethylbenzene sulfonamide], the values for the half-inhibitory concentration (IC50) in experiment [1], in experiment [2] and in experiment [3] were 500 to 1000 nM, 500 to 1000 nM and greater than 2500 nM, respectively.
